Reference: the supplement of paper PMC13380429

Assays:
Conditions in all cases: 72 h
U2OS [1] = assay: relative viability EC50 (midpoint between 100% and the lowest measured viability); higher = less toxic
HepG2 [2] = assay: as above
Calu-3 [3] = assay: as above
Caco-2 [4] = assay: as above
U2OS [5] = assay: drug sensitivity score (DSS) for viability; higher = more toxic; extreme values may be limits of the assay
HepG2 [6] = assay: as above
Calu-3 [7] = assay: as above
Caco-2 [8] = assay: as above
U2OS [9] = assay: cell viability relative to DMSO; higher = less toxic
HepG2 [10] = assay: as above
Calu-3 [11] = assay: as above
Caco-2 [12] = assay: as above
Vero E6 [13] = assay: relative viability EC50 (midpoint between 100% and the lowest measured viability); higher = less toxic
Vero E6 [14] = assay: drug sensitivity score (DSS) for viability; higher = more toxic; extreme values may be limits of the assay
Vero E6 [15] = assay: cell viability relative to DMSO; higher = less toxic

SMILES	relative viability EC50 (U2OS [1]) [µM]	relative viability EC50 (HepG2 [2]) [µM]	relative viability EC50 (Calu-3 [3]) [µM]	relative viability EC50 (Caco-2 [4]) [µM]	drug sensitivity score (U2OS [5])	drug sensitivity score (HepG2 [6])	drug sensitivity score (Calu-3 [7])	drug sensitivity score (Caco-2 [8])	cell viability (U2OS [9]; 1 nM) [%]	cell viability (U2OS [9]; 10 nM) [%]	cell viability (U2OS [9]; 100 nM) [%]	cell viability (U2OS [9]; 1000 nM) [%]	cell viability (U2OS [9]; 10000 nM) [%]	cell viability (HepG2 [10]; 1 nM) [%]	cell viability (HepG2 [10]; 10 nM) [%]	cell viability (HepG2 [10]; 100 nM) [%]	cell viability (HepG2 [10]; 1000 nM) [%]	cell viability (HepG2 [10]; 10000 nM) [%]	cell viability (Calu-3 [11]; 1 nM) [%]	cell viability (Calu-3 [11]; 10 nM) [%]	cell viability (Calu-3 [11]; 100 nM) [%]	cell viability (Calu-3 [11]; 1000 nM) [%]	cell viability (Calu-3 [11]; 10000 nM) [%]	cell viability (Caco-2 [12]; 1 nM) [%]	cell viability (Caco-2 [12]; 10 nM) [%]	cell viability (Caco-2 [12]; 100 nM) [%]	cell viability (Caco-2 [12]; 1000 nM) [%]	cell viability (Caco-2 [12]; 10000 nM) [%]	relative viability EC50 (Vero E6 [13]) [µM]	drug sensitivity score (Vero E6 [14])	cell viability (Vero E6 [15]; 1 nM) [%]	cell viability (Vero E6 [15]; 10 nM) [%]	cell viability (Vero E6 [15]; 100 nM) [%]	cell viability (Vero E6 [15]; 1000 nM) [%]	cell viability (Vero E6 [15]; 10000 nM) [%]
CCOCCn1c(C2CCN(CCc3ccc(C(C)(C)C(=O)O)cc3)CC2)nc2ccccc21 [bilastine]	> 10	> 10	> 10	> 10	0	0	0	3.1	96.6	98.2	103	103	95.7	94.3	96	104	97.6	100	98.1	106	93.5	97.8	99.5	102	87.5	85.6	92.5	87.8							
O=c1ccc2ccc(OCCCCN3CCN(c4cccc5sccc45)CC3)cc2[nH]1 [brexpiprazole]	> 10		> 10	> 10	0.1	3.5	0	0	97.6	99	95.6	101	86.6	100	96.3	96	92	56.8	95.5	85	96	91.6	104	91.7	96.7	87.3	98.1	87.5	> 10	0	99.1	97.5	94.5	94.5	94.3
CN(C)C(=O)COC(=O)Cc1ccc(OC(=O)c2ccc(NC(=N)N)cc2)cc1 [camostat-mesilate]	> 10		> 10	> 10	0		0	0	97.8	102	94.2	104	102						100	106	98.2	110	103	102	98.9	104	105	108	> 10	0	110	99.7	101	103	106
Nc1ccncc1 [dalfampridine]			> 10	> 10			0	0											102	104	90.9	99	100	102	108	99.1	106	96	> 10	0	107	102	101	101	98.9
CN(C)CCOC(c1ccccc1)c1ccccc1 [diphenhydramine]	> 10	> 10	> 10	> 10	0	0.2	0	0	102	103	104	96.5	102	97.8	93.3	95.3	103	84.4	97.5	104	114	112	105	100	93.9	96.1	91.8	128							
COC(=O)/C=C/C(=O)OCCN1C(=O)CCC1=O [diroximel-fumarate]	> 10		> 10	> 10	0	1.8	0	0	101	101	105	103	98.9	103	115	87.7	115	52.1	112	112	120	92.5	123	109	104	107	97.6	92.4	> 10	0	98.4	102	92.2	99	106
CC1=C(CC(=O)O)c2cc(F)ccc2/C1=C\c1ccc(S(C)(=O)=O)cc1 [exisulind]	> 10		> 10	> 10	0	1.5	0	2.2	103	94.7	100	97.5	100	106	95.3	95.4	96.7	74.8	95.6	102	103	97.6	112	96.4	104	91.6	84.6	94.8	> 10	0	104	96.2	87.8	110	94.8
CC(C(=O)O)c1cccc(Oc2ccccc2)c1 (configuration not stated) [fenoprofen]	> 10		> 10	> 10	0		0	0	96.7	99.9	97.5	103	105						98.1	112	111	103	103	98.4	93.5	98.7	101	108	> 10	0	101	94	95.3	88.7	112
Oc1cc(O)c(Cl)cn1 [gimeracil]	> 10	> 10	> 10	> 10	0	0.2	0	0	100	100	104	98.5	104	105	106	98.3	96.2	87.2	107	105	104	98.3	92.4	97.8	92.7	97.7	95.8	98.1							
Cc1ccnc2c1CCCC2C(N)=S (configuration not stated) [isotiquimide]	> 10	> 10	> 10	> 10	0	0	0	0	102	97.4	100	101	102	103	100	92.4	99.4	98.6	95.1	86.7	98.1	107	106	106	102	99.9	96	110							
NCCCC[C@H](N[C@@H](CCc1ccccc1)C(=O)O)C(=O)N1CCC[C@H]1C(=O)O [lisinopril]	> 10		> 10		0		0		102	95.7	95	97	97.2						109	94.7	110	98.8	93.4						> 10	0	104	105	102	101	99.2
CCCN1C[C@H](CSC)C[C@@H]2c3cccc4[nH]cc(c34)C[C@H]21 [pergolide]	> 10		> 10	> 10	0		0	0	97.3	102	100	102	97.3						89.8	105	104	99.7	101	93.2	93	99.5	96.4	100	> 10	0	95.9	96.5	95.6	90	96.4
CCn1cc(C(=O)O)c(=O)c2cnc(N3CCNCC3)nc21 [pipemidic-acid]	> 10	> 10	> 10	> 10	0	0	0	0	98.7	101	97.4	104	100	110	108	107	99.8	102	107	99.1	103	96.9	91.9	94.2	102	95.5	99.4	92.9							
O=C(O)CCC(=O)Nc1ccc(S(=O)(=O)Nc2nccs2)cc1 [succinylsulfathiazole]	> 10		> 10	> 10	0		0	0	95.3	100	95.7	99.9	104						94	96.2	96.1	112	108	93.9	100	89.6	104	102	> 10	0	97.8	97.3	98.7	92.1	112
O=C(O)c1ccc2nc(-c3cc(Cl)cc(Cl)c3)oc2c1 [tafamidis-meglumine]	> 10	> 10	> 10	> 10	0	0	0	0	100	101	101	97.6	100	103	102	99.5	99.6	96	97.6	95.8	94.7	93.1	99.2	103	88	102	90.2	103							
Cc1cccc(C)c1NC(=O)[C@@H](C)N [tocainide]	> 10	> 10	> 10	> 10	0	0	0	0	100	102	99.2	104	98.5	107	102	91.5	94.2	95.3	105	92.3	90	108	103	96.8	95.8	97.5	101	95.5							
